# The supplement of paper PMC10307832
# What was measured:
# Experiment in all cases: relative viability (nuclei count vs DMSO), 5 days (fraction); higher = more cells survive
# [1] = compound: O=C(CCCCCCNC(=O)c1cnc(N(c2ccccc2)c2ccccc2)nc1)NO [Ricolinostat] + Cc1cc(Nc2cc(N3CCN(C)CC3)nc(Sc3ccc(NC(=O)C4CC4)cc3)n2)n[nH]1 [Tozasertib] (partner 0.1 µM)
# In short: (§1)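 Lung cancer cell lines were seeded in 1536-well plates and dosed by pin tool the next day, with either a single drug or a fixed anchor-drug dose combined with five library-drug doses (not always all listed) spaced in √10 steps. Five days later, one step fixed the cells and stained their nuclei (final 0.05% Triton X-100, 1% formaldehyde, 1 ug/ml Hoechst), and nuclei were counted on 4× images. Relative viability is the nuclei count in treated wells divided by the count in vehicle wells, and each value is the median of duplicate plates.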
# TGX 221 + Vorinostat = compound: CC1=CN2C(=O)C=C(N=C2C(=C1)C(C)NC3=CC=CC=C3)N4CCOCC4 [TGX 221] + O=C(CCCCCCC(=O)Nc1ccccc1)NO [Vorinostat] (partner 1 µM)
# In short: as §1
# Ricolinostat + Dasatinib = compound: O=C(CCCCCCNC(=O)c1cnc(N(c2ccccc2)c2ccccc2)nc1)NO [Ricolinostat] + Cc1nc(Nc2ncc(C(=O)Nc3c(C)cccc3Cl)s2)cc(N2CCN(CCO)CC2)n1 [Dasatinib] (partner 0.075 µM)
# In short: as §1
# TGX 221 + Alpelisib = compound: CC1=CN2C(=O)C=C(N=C2C(=C1)C(C)NC3=CC=CC=C3)N4CCOCC4 [TGX 221] + Cc1nc(NC(=O)N2CCC[C@H]2C(N)=O)sc1-c1ccnc(C(C)(C)C(F)(F)F)c1 [Alpelisib] (partner 2 µM)
# In short: as §1
Cell Line,relative viability ([1]; first compound 0.08 µM),relative viability ([1]; first compound 0.253 µM),relative viability ([1]; first compound 0.8 µM),relative viability ([1]; first compound 2.53 µM),relative viability (TGX 221 + Vorinostat; first compound 0.08 µM),relative viability (TGX 221 + Vorinostat; first compound 0.253 µM),relative viability (TGX 221 + Vorinostat; first compound 0.8 µM),relative viability (TGX 221 + Vorinostat; first compound 2.53 µM),relative viability (TGX 221 + Vorinostat; first compound 8 µM),relative viability (Ricolinostat + Dasatinib; first compound 0.08 µM),relative viability (Ricolinostat + Dasatinib; first compound 0.253 µM),relative viability (Ricolinostat + Dasatinib; first compound 0.8 µM),relative viability (Ricolinostat + Dasatinib; first compound 2.53 µM),relative viability (TGX 221 + Alpelisib; first compound 0.08 µM),relative viability (TGX 221 + Alpelisib; first compound 0.253 µM),relative viability (TGX 221 + Alpelisib; first compound 0.8 µM),relative viability (TGX 221 + Alpelisib; first compound 2.53 µM),relative viability (TGX 221 + Alpelisib; first compound 8 µM)
NCI-H2342,0.496,0.461,0.401,0.426,0.697,0.711,0.836,0.804,0.793,0.32,0.311,0.365,0.293,–,–,–,–,–
SK-LU-1,0.321,0.273,0.285,0.194,0.644,0.682,0.72,0.776,0.712,0.16,0.153,0.18,0.175,0.948,0.788,0.903,0.9,0.731
NCI-H2023,–,0.373,0.244,0.188,0.552,0.701,0.759,0.495,0.502,–,0.569,0.535,0.472,0.599,0.452,0.524,0.311,0.268
NCI-H1299,–,–,–,–,–,–,–,–,–,–,–,–,–,0.991,1.07,1.12,1.14,1.17
LOU-NH91,0.571,0.639,0.595,0.528,0.888,0.963,0.957,0.902,0.9,0.453,0.543,0.558,0.533,0.69,0.706,0.682,0.697,0.575
LCLC-103H,0.443,0.401,0.393,0.337,0.761,0.806,0.708,0.647,0.766,0.437,0.55,0.423,0.464,1.03,0.896,0.776,0.743,0.654
SW 1573,0.277,0.193,0.165,0.242,0.648,0.655,0.739,0.888,0.778,0.756,0.507,0.695,0.581,0.63,0.495,0.577,0.433,0.393
NCI-H1755,0.581,0.565,0.525,0.53,0.677,0.681,0.775,0.718,0.667,0.368,0.386,0.472,0.449,0.876,0.706,0.651,0.49,0.437
COR-L 105,–,0.325,0.3,0.352,0.906,0.884,0.869,0.726,0.82,–,0.368,0.397,0.401,1.02,0.838,0.697,0.609,0.361
NCI-H1793,–,0.256,0.27,0.244,0.612,0.521,0.589,0.592,0.588,–,0.397,0.348,0.322,0.611,0.503,0.482,0.446,0.406
